In test [1] the target is T1, human orexin 1 receptor (hOX1R) (Homo sapiens, UniProt O43613).
T1 construct: expressed in transfected cells; host or cells: Chinese hamster ovary (CHO) cells
T1 sequence (O43613 1-425): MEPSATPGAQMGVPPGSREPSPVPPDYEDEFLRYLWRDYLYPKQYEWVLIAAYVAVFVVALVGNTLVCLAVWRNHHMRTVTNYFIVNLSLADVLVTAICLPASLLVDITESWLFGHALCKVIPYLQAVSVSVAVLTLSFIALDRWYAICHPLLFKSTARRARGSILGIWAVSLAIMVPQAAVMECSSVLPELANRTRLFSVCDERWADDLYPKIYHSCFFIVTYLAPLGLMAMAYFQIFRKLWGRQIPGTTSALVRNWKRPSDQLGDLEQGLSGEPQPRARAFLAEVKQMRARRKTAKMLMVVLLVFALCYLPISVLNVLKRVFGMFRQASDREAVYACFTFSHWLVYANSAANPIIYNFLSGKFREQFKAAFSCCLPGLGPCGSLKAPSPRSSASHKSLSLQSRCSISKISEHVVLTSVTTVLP
The test can be described thus: Measurement of orexin antagonist activity (intracellular Ca2+ fluorescence, FDSS) in CHO cells expressing hOX1R. It is filed as cell-based. To be noted: CHO cells forcibly expressing hOX1R; ligand (two-amino-acid-substituted human orexin-A) 300 pM; Fluo 4-AM; read-out: IC50 value OX1. As for the experimental part:
(§1) The antagonist activity of a test compound against the human orexin 1 receptor (hOX1R) or orexin 2 receptor (hOX2R) was measured by the method described in the document (Toshikatsu Okumura et al., Biochemical and Biophysical Research Communications, 280, 976-981, 2001) with appropriate modification. Chinese hamster ovary (CHO) cells forcibly expressing hOX1R or hOX2R were seeded into each well of a 96-well Black clear bottom plate (Nunc A/S) in the amount of 20000 cells per well and were cultured in a Ham's F-12 medium (Invitrogen, Inc.) containing 0.1 mM MEM non-essential amino acids (Invitrogen, Inc.), 0.5 mg/mL G418 (Invitrogen, Inc.), and 10% fetal calf serum (Invitrogen, Inc.) at 37° C. in 5% CO2 for 16 hours. The medium was removed, and then added to each well was 100 μL of an assay buffer (pH 7.4) containing 0.5 μM Fluo 4-AM ester (Dojindo Laboratories), wherein the buffer was composed of 25 mM HEPES (Dojindo Laboratories), a Hanks' balanced salt solution (Invitrogen, Inc.), 0.1% bovine serum albumin (Sigma-Aldrich Co., LLC.), 2.5 mM probenecid (Sigma-Aldrich Co., LLC.), and 200 μg/mL Amaranth (Sigma-Aldrich Co., LLC.), followed by incubation at 37° C. in 5% CO2 for 60 min. The assay buffer containing Fluo 4-AM ester was removed, and then 150 μL of an assay buffer solution containing 10 mM of the test compound dissolved in dimethyl sulfoxide was added to each well, followed by incubation for 30 min.
(§2) A peptide (Pyr-[…]NH2: Peptide Institute, Inc.), which is a ligand having substitution of two amino acids in human orexin-A, was diluted with an assay buffer to a final concentration of 300 pM for hOX1R and to a final concentration of 3 nM for hOX2R. The reaction was started by adding 50 μL of this ligand solution to each well. The reaction was monitored by measuring the fluorescence of each well at each 1 second for 3 min with a Functional Drug Screening System (FDSS manufactured by Hamamatsu Photonics K.K.), and the antagonist activity was determined based on the maximum fluorescence value as an index of the intracellular Ca^2+ concentration. The antagonist activity of a test compound was calculated by assuming that the fluorescence value of the well containing only a dilution buffer was 100% and that the fluorescence value of the well containing a buffer not containing the ligand or any test compound was 0%. The 50% inhibitory concentration (IC50 value) of a test compound was determined from fluorescence values at various concentrations of the test compound.

Test [2] addresses T2, human orexin 2 receptor (hOX2R) (Homo sapiens, UniProt O43614).
T2 construct: expressed in transfected cells; host or cells: Chinese hamster ovary (CHO) cells
T2 sequence (O43614 1-444): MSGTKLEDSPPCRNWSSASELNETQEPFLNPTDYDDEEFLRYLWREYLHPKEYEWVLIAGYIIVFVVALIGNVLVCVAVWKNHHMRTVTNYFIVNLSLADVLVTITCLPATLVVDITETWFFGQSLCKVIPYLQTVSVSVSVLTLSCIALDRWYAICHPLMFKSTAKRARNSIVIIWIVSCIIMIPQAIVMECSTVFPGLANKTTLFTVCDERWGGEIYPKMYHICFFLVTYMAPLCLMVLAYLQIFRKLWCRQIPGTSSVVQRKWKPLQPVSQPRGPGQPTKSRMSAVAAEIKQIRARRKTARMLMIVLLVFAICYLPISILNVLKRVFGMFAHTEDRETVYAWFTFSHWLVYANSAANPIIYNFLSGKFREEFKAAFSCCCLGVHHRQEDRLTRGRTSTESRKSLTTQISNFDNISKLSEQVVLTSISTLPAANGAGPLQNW
The test can be described thus: Measurement of orexin antagonist activity (intracellular Ca2+ fluorescence, FDSS) in CHO cells expressing hOX2R. The format is cell-based. Particulars: CHO cells forcibly expressing hOX2R; ligand (two-amino-acid-substituted human orexin-A) 3 nM; Fluo 4-AM; read-out: IC50 value OX2. As for the experimental part: as §1, §2

SMILES strings stand for the structures.

This note sets out measurements from patent US20140081025A1, “HETEROAROMATIC RING DERIVATIVE” (TAISHO PHARMACEUTICAL CO., LTD., priority 2011, published 2014).

Broadly, the IC50 is the concentration that gives 50% inhibition. With `CCN(CCc1ccn(-c2ccc(F)cn2)n1)C(=O)c1cc(C)ccc1-n1nccn1` [Example 8, N-Ethyl-N-{2-[1-(5-fluoropyridin-2-yl)-1H-pyrazol-3-yl]ethyl}-5-methyl-2-(2H-1,2,3-triazol-2-yl)benzamide], the IC50 in test [1] worked out at 0.0018 µM; in test [2], 0.0038 µM.
`CCN(CCc1cnn(-c2ccc(F)cn2)c1)C(=O)c1ccccc1-n1nccn1` [Example 3, N-Ethyl-N-{2-[1-(5-fluoropyridin-2-yl)-1H-pyrazol-4-yl]ethyl}-2-(2H-1,2,3-triazol-2-yl)benzamide]: the values for the half-inhibitory concentration (IC50) in test [1] and in test [2] were 0.0042 µM and 0.0606 µM, respectively.
In the case of `CCN(CCc1noc(-c2ccc(F)cn2)n1)C(=O)c1cc(F)ccc1-c1ncccn1` [Example 46, N-ethyl-5-fluoro-N-{2-[5-(5-fluoropyridin-2-yl)-1,2,4-oxadiazol-3-yl]ethyl}-2-(pyrimidin-2-yl) benzamide], the 50% inhibitory concentration (IC50) turned out to be 0.974 µM in test [1] and 1.23 µM in test [2].
Take `CCN(CCc1noc(-c2ccc(F)cc2)n1)C(=O)c1cc(F)ccc1-c1ncccn1` [Example 40, N-ethyl-5-fluoro-N-{2-[5-(4-fluorophenyl)-1,2,4-oxadiazol-3-yl]ethyl}-2-(pyrimidin-2-yl) benzamide]: the results for the IC50 in test [1] and in test [2] were 0.0017 µM and 0.078 µM, respectively.
The corresponding values for `Cc1ccc(-n2nccn2)c(C(=O)N(C)CCc2cc(-c3ccc(F)cn3)on2)c1` [Example 9, N-{2-[5-(5-Fluoropyridin-2-yl)-1,2-oxazol-3-yl]ethyl}-N,5-dimethyl-2-(2H-1,2,3-triazol-2-yl)benzamide] are 0.0167 µM and 0.0774 µM.
For `CCN(CCc1ccn(-c2cccc(C)n2)n1)C(=O)c1cc(F)ccc1-c1ncccn1` [Example 28, N-ethyl-5-fluoro-N-{2-[1-(6-methylpyridin-2-yl)-1H-pyrazol-3-yl]ethyl}-2-(pyrimidin-2-yl) benzamide] the same measures were 0.0081 µM and 0.0811 µM.
As for `CCN(CCc1noc(-c2ccc(F)cc2)n1)C(=O)c1ccccc1-n1nccn1` [Example 41, N-ethyl-N-{2-[5-(4-fluorophenyl)-1,2,4-oxadiazol-3-yl]ethyl}-2-(2H-1,2,3-triazol-2-yl) benzamide], the IC50 in test [1] is 0.0016 µM; in test [2], 0.0316 µM.
As for `CCN(CCc1noc(-c2ccc(F)c(F)c2)n1)C(=O)c1cc(F)ccc1-c1ncccn1` [Example 43, N-{2-[5-(3,4-difluorophenyl)-1,2,4-oxadiazol-3-yl]ethyl}-N-ethyl-5-fluoro-2-(pyrimidin-2-yl) benzamide], the values for the IC50 in test [1] and in test [2] were 0.061 µM and 0.0698 µM, respectively.
For `CN(CCc1ccn(-c2ccc(F)cn2)n1)C(=O)c1cc(F)ccc1-n1nccn1` [Example 15, 5-Fluoro-N-{2-[1-(5-fluoropyridin-2-yl)-1H-pyrazol-3-yl]ethyl}-N-methyl-2-(2H-1,2,3-triazol-2-yl)benzamide] the same measures were 0.0146 µM and 0.191 µM.
As for `CCN(CCc1ccn(-c2ccc(F)c(F)c2)n1)C(=O)c1cc(F)ccc1-c1ncccn1` [Example 29, N-{2-[1-(3,4-difluorophenyl)-1H-pyrazol-3-yl]ethyl}-N-ethyl-5-fluoro-2-(pyrimidin-2-yl) benzamide], the 50% inhibitory concentration (IC50) in test [1] came to 0.0013 µM; in test [2], 0.0112 µM.
Turning to `CCN(CCc1ccn(-c2ccc(F)cn2)n1)C(=O)c1cc(F)ccc1-n1nccn1` [Example 7, N-Ethyl-N-{2-[1-(5-fluoropyridin-2-yl)-1H-pyrazol-3-yl]ethyl}-5-fluoro-2-(2H-1,2,3-triazol-2-yl)benzamide], the values for the 50% inhibitory concentration (IC50) in test [1] and in test [2] were 0.011 µM and 0.0249 µM, respectively.
`CCN(CCc1ccn(-c2ccc(F)cc2)n1)C(=O)c1ccccc1-c1ncccn1` [Example 30, N-ethyl-N-{2-[1-(4-fluorophenyl)-1H-pyrazol-3-yl]ethyl}-2-(pyrimidine-2-yl)benzamide]: the IC50 in test [1] was found to be 0.0019 µM; in test [2] it was 0.0132 µM.
For `CCN(CCc1noc(-c2ccc(F)cn2)n1)C(=O)c1cc(C)ccc1-n1nccn1` [Example 12, N-Ethyl-N-{2-[5-(5-fluoropyridin-2-yl)-1,2,4-oxadiazol-3-yl]ethyl}-5-methyl-2-(2H-1,2,3-triazol-2-yl)benzamide] the same measures were 0.0019 µM and 0.0116 µM.
`CN(CCc1ccn(-c2ccc(F)cn2)n1)C(=O)c1cc(Cl)ccc1-n1nccn1` [Example 16, 5-Chloro-N-{2-[1-(5-fluoropyridin-2-yl)-1H-pyrazol-3-yl]ethyl}-N-methyl-2-(2H-1,2,3-triazol-2-yl)benzamide]: the half-inhibitory concentration (IC50) worked out at 0.0033 µM in test [1] and 0.0305 µM in test [2].
As for `CCN(CCc1noc(-c2ccc(F)cc2)n1)C(=O)c1cc(C)ccc1-c1ncccn1` [Example 39, N-ethyl-N-{2-[5-(4-fluorophenyl)-1,2,4-oxadiazol-3-yl]ethyl}-5-methyl-2-(pyrimidin-2-yl)benzamide], the IC50 in test [1] was determined as 0.0007 µM; in test [2], 0.0173 µM.
For `CCN(CCc1ccn(-c2ccc(F)cn2)n1)C(=O)c1cc(F)ccc1-c1ncccn1` [Example 20, N-ethyl-5-fluoro-N-{2-[1-(5-fluoropyridin-2-yl)-1H-pyrazol-3-yl]ethyl}-2-(pyrimidin-2-yl) benzamide] the same measures were 0.0017 µM and 0.0132 µM.
For the compound `CCN(CCc1noc(-c2ccc(F)c(F)c2)n1)C(=O)c1ccccc1-n1nccn1` [Example 42, N-ethyl-N-{2-[5-(3,4-difluorophenyl)-1,2,4-oxadiazol-3-yl]ethyl}-2-(2H-1,2,3-triazol-2-yl) benzamide], the half-maximal inhibitory concentration (IC50) came out at 0.0097 µM in test [1] and 0.0108 µM in test [2].
Turning to `CCN(CCc1noc(-c2ccc(F)cc2)n1)C(=O)c1cc(C)ccc1-n1nccn1` [Example 38, N-Ethyl-N-{2-[5-(4-fluorophenyl)-1,2,4-oxadiazol-3-yl]ethyl}-5-methyl-2-(2H-1,2,3-triazol-2-yl)benzamide], the results for the concentration for half-maximal inhibition (IC50) in test [1] and in test [2] were 0.0012 µM and 0.0061 µM, respectively.
For `Cc1ccc(-n2nccn2)c(C(=O)N(C)CCc2noc(-c3ccc(F)c(F)c3)n2)c1` [Example 36] the same measures were 0.0019 µM and 0.0059 µM.
For the compound `Cc1ccc(-n2nccn2)c(C(=O)N(C)CCc2cnn(-c3ccc(F)cn3)c2)c1` [Example 2, N-{2-[1-(5-Fluoropyridin-2-yl)-1H-pyrazol-4-yl]ethyl}-N,5-dimethyl-2-(2H-1,2,3-triazol-2-yl)benzamide], the values for the 50% inhibitory concentration (IC50) in test [1] and in test [2] were 0.0007 µM and 0.0085 µM, respectively.
Take `CCN(CCc1noc(-c2ccc(F)cn2)n1)C(=O)c1cc(C)ccc1-c1ncccn1` [Example 45, N-ethyl-N-{2-[5-(5-fluoropyridin-2-yl)-1,2,4-oxadiazol-3-yl]ethyl}-5-methyl-2-(pyrimidin-2-yl)benzamide]: the IC50 in test [1] was 0.163 µM; in test [2], 0.159 µM.
